Data set [1] has as its system PKC. The data set is described as follows: PKC inhibitors on diterpene-induced GFP expression in J-Lat clones 9.2 and 10.6. In kind it is cell-based. The protocol:
(§1) For analysis of cell surface marker expression, MT-4 cells and bead-selected CD4+ T cells (described above) were incubated with 1 µM of each compound (ING-A, ING-B, ING-C, prostratin, PMA, and bryostatin-1) at 37°C for 48 h. After incubation, cells were washed with PBS and incubated for 20 min at room temperature with antibodies against CD3-Brilliant Violet 510 (clone OKT3 – Biolegend), CD4-Qdot 655 (clone 53.5 - Life Technologies), CXCR4-PE (clone 1265 - BD Biosciences), CCR5-PerCP-Cy5.5 (clone 3A9 - BD Biosciences), CD69-Pacific Blue (clone FN50 – BD Biosciences), CD38-FITC (clone AT-1 – Stem Cell Technologies), CD25-APC (clone 2A3 – BD Biosciences), HLA-DR-Qdot 605 (clone TÜ36 – Life Technologies) and a marker for annexin V-FITC (Life Technologies). Cells (both MT-4 cells and CD4+ T cells) were initially incubated for 2 h with different PKC inhibitors (GÖ6983, GÖ6976 or RO-31-8220). Then, ING-B, prostratin or PMA at 1 µM or TNF-α at 10 ng/mL were added to each condition and incubation was carried out for 24 h at 37°C. Similar protocol was used for the analysis of PKC inhibitors in J-Lat clones 9.2 and 10.6. GFP expression, surface marker expression and activation marker were evaluated on a LSR Fortessa cytometer (BD Biosciences). Data analysis was performed using FlowJo software (Tree Star).

The subject of data set [2] is PKC. The data set is described as follows: PKC inhibitors on ING-B-driven receptor downregulation in MT-4 cells. It counts as cell-based. The conditions noted are these: 0.1 µM inhibitor, then 1 µM ING-B 24 h. The protocol:
as §1

Data set [3] deals with PKC. In words: PKC inhibitors on ING-B-driven receptor downregulation in CD4+ T lymphocytes. Conditions: 0.1 µM inhibitor in the presence of 1 µM ING-B. In kind it is cell-based, human. The protocol:
as §1

The nature of data set [4]: Cytotoxicity (CC50) in human PBMCs. In kind it is cell-based. The conditions noted are these: human PBMCs activated with IL-2 and PHA-P; Human PBMC, Subtype C (R5). As for the experimental part:
(§2) Cytotoxicity of ISDs was evaluated in J-Lat (clones 9.2 and 10.6) and PHA-activated human PBMCs. Cells were added to wells in a 96-well plate in the presence of various concentrations of ISDs, PMA or prostratin in sextuplicates for 24 and 72 h. Cell viability was determined using the CellTiter-blue fluorescence Cell Viability Assay (Promega) following the manufacturer's instruction.
(§3) Human PMBCs were incubated with 100 U recombinant IL-2 (Sigma-Aldrich) and 5 µg/mL phytohemagglutinin-P (PHA-P) (Difco) for 5 days at 37°C. MT-4 cells (1×10^6) or treated PBMCs (1.2×10^8) were infected with HIV-1 clone NL-4.3 or ZM247Fv-1 (MOI of 0.001) by spinoculation (1200 g at room temperature for 2 h). Uninfected cells were used as negative control and were also subjected to the spinoculation process. After spinoculation, supernatants were discarded and cells were resuspended in 10 mL of R10. Cells from each condition were then added to wells (96-well plate) containing serial dilutions of each ISD. For MT-4 cells, each dilution was done in sextuplicates and, for PBMCs, in triplicates. Cells were also incubated with different concentrations of ZDV as positive control. After 5 days in culture, Cell Titer Blue was added to each well and cells were incubated for additional 24 h. The median effective concentration for each drug is defined as EC50. In parallel with the infectivity assay, the same cell types were treated with different concentrations of drugs to determine their cytotoxicity, following the protocol described above. Drug concentration that results in a 50% decrease in viable cells is defined as the CC50 for each compound. EC50 was calculated according to Spearman-Karber and therapeutic index was defined by the ratio between CC50 and EC50 [55].

The nature of data set [5]: Cytotoxicity (CC50) in MT-4 cells. In kind it is cell-based. Conditions: human, Subtype B (X4). The protocol:
as §2, §3

For data set [6], the system named is HIV-1 clone NL4.3 (subtype B). In words: HIV-1 NL4.3 (subtype B) infection of human PBMCs, Cell Titer Blue readout. In kind it is cell-based. The protocol:
as §3
(§4) All statistical analyses were performed using program GraphPism version 6.0. Titrations for TCID50 infectivity were calculated by the Spearman-Karber method. Dose response curves to ISDs with HIV-1 subtype B and C were done using non-linear regression and were fit to the Hill equation.

The test system of data set [7] is HIV-1 clone ZM247Fv-1 (subtype C). The data set is described as follows: HIV-1 ZM247Fv-1 (subtype C) infection of MT-4 cells, Cell Titer Blue readout. The conditions noted are these: for EC50: Human immunodeficiency virus 1, MT4; for TI (CC50/EC50): MT-4 cells, Subtype C (R5). It counts as cell-based. As for the experimental part:
as §3, §4

In data set [8] the test system is HIV-1 clone NL4.3 (subtype B). The data set is described as follows: HIV-1 NL4.3 (subtype B) infection of MT-4 cells, Cell Titer Blue readout. The conditions noted are these: for EC50: Human immunodeficiency virus 1, MT4. In kind it is cell-based. The protocol: as §3, §4
Another data set has as its system HIV LTR in J-Lat clones. In words: LTR-driven GFP expression in J-Lat clones. In kind it is cell-based, HIV-1. The conditions noted are these: J-Lat clones 9.2 and 10.6, 48 h, all concentrations tested. As for the experimental part:
J-Lat cells are Jurkat cells stably transfected by an HIV genome whose nef sequence was replaced by the GFP gene. Also, a frameshift mutation was introduced to the env gene to prevent virus spread. […] To test the ISDs, a million cells of each clone were treated with different concentrations of each compound (ING-A, ING-B, ING-C, prostratin and PMA) at 37°C. TNF-α (10 ng/mL) was used as a positive control. After 48 h, cells were collected, washed with saline solution (PBS) and GFP expression was evaluated in a FACScalibur cytometer (BD Biosciences). Data were analyzed with Cell Quest Pro software (BD Biosciences).

The subject of data set [9] is HIV-1 clone ZM247Fv-1 (subtype C). In words: HIV-1 ZM247Fv-1 (subtype C) infection of human PBMCs, Cell Titer Blue readout. In kind it is cell-based. Conditions: for TI (CC50/EC50): Human PBMC, Subtype C (R5); for EC50: Human immunodeficiency virus 1, PBMC. As for the experimental part:
as §3, §4

Data set [10] deals with CD4, CXCR4, CCR5 on MT-4 cells. In words: Surface CD4, CXCR4, CCR5 expression in MT-4 cells (cytometry). In kind it is cell-based. Conditions: 1 µM. The protocol: as §1
Data set [11] has as its system CD4, CXCR4, CCR5 on CD4+ T lymphocytes. In words: Surface CD4, CXCR4, CCR5 expression in CD4+ T lymphocytes (cytometry). Conditions: CD4+ lymphocytes, 1 µM. It counts as cell-based, human. As for the experimental part:
as §1

For another data set, the system named is CD4+ T lymphocytes. The data set is described as follows: Activation markers CD25, CD38, HLA-DR, CD69 on CD4+ T lymphocytes (cytometry). The conditions noted are these: 1 µM. It counts as cell-based, human. As for the experimental part:
For analysis of cell surface marker expression, MT-4 cells and bead-selected CD4+ T cells (described above) were incubated with 1 µM of each compound (ING-A, ING-B, ING-C, prostratin, PMA, and bryostatin-1) at 37°C for 48 h. […] Cells (both MT-4 cells and CD4+ T cells) were initially incubated for 2 h with different PKC inhibitors (GÖ6983, GÖ6976 or RO-31-8220). Then, ING-B, prostratin or PMA at 1 µM or TNF-α at 10 ng/mL were added to each condition and incubation was carried out for 24 h at 37°C. […] GFP expression, surface marker expression and activation marker were evaluated on a LSR Fortessa cytometer (BD Biosciences). Data analysis was performed using FlowJo software (Tree Star).

A further data set relates to HIV-1 subtype B and C. The data set is described as follows: Inhibition of HIV-1 subtype B and C replication, summary over MT-4 cells and human PBMCs. In kind it is cell-based. The conditions noted are these: Human immunodeficiency virus 1, PBMC, MT-4 and human PBMCs. As for the experimental part:
as §3

Setting [12] is: Human immunodeficiency virus 1, PBMC.

Take `Cn1c2ccccc2c2c3c(c4c5ccccc5n(CCC#N)c4c21)C(=O)NC3` [GÖ6976]: the “effect on ISD induction of GFP expression” value in the data set on PKC [1] (0.1 µM inhibitor) was “little effect”. For the same compound, the “effect on ING-B-driven receptor downregulation” value with PKC [2] is listed as “little effect on blocking receptor downregulation”.

Take `COc1ccc2c(c1)c(C1=C(c3c[nH]c4ccccc34)C(=O)NC1=O)cn2CCCN(C)C` [GÖ6983]: the “blocking of GFP expression induced by ING-B” value with PKC [1] (J-Lat clones 9.2 and 10.6, pre-treatment, then ING-B 24 h) was “strongly blocked GFP expression”. Moreover, the “effect on ING-B-driven receptor downregulation” value in the data set with PKC [2] is “not able to downregulate the expression of CD4 and CXCR4”. Also, the “overexpression of CD4 and CCR5 compared to untreated control” value in the data set with PKC [3] is given as “up to 2.5 fold”.

Consider `CC1=C[C@]23C(=O)[C@@H](C=C(CO)[C@@H](O)[C@]2(O)[C@H]1OC(=O)/C=C/c1ccccc1)[C@H]1[C@@H](C[C@H]3C)C1(C)C` [ING-A, ingenol-3-trans-cinnamate], for which the figures for the 50% cytotoxic concentration (CC50) at 5 days in data set [4] and in data set [5] were 34000 nM and 25000 nM, respectively. The “TI (CC50/EC50)” value in data set [6] (Human PBMC, Subtype B (X4)) is given as 641.5; in [7] it was 657.9; in [8] (MT-4 cells, Subtype B (X4)) it was 675.6; in [9], 693.9. The EC50 worked out at 53 nM in data set [6] (setting [12]), 38 nM in [7], 37 nM in [8] and 49 nM in [9]. In addition, the “levels of GFP expression, rank order” value with HIV LTR in J-Lat clones was “PMA = ING-B > ING-A = ING-C > prostratin”.

Take `CCCCCCCCCCCC(=O)O[C@H]1C(C)=C[C@]23C(=O)[C@@H](C=C(CO)[C@@H](O)[C@]12O)[C@H]1[C@@H](C[C@H]3C)C1(C)C` [ING-C, ingenol-3-dodecanoate]: the values for the CC50 at 5 days in data set [4] and in data set [5] were 38000 nM and 27000 nM, respectively. The “TI (CC50/EC50)” value in data set [6] (Human PBMC, Subtype B (X4)) worked out at 730.7; in [7], 750; in data set [8] (MT-4 cells, Subtype B (X4)), 658.5; in data set [9], 413. For the same compound, the EC50 in data set [6] (setting [12]) was determined as 52 nM; in data set [7], 36 nM; in data set [8], 41 nM; in data set [9] it was 92 nM. The “levels of GFP expression, rank order” value in the data set on HIV LTR in J-Lat clones is recorded as “PMA = ING-B > ING-A = ING-C > prostratin”.

For `CCCCCCCCCCCCCC(=O)O[C@@H]1[C@@H](C)[C@@]2(O)[C@@H](C=C(CO)C[C@]3(O)C(=O)C(C)=C[C@@H]23)[C@@H]2C(C)(C)[C@]12OC(C)=O` [PMA, phorbol 13-myristate acetate], in [10], the “surface CD4 and CXCR4 expression, of that in the control condition” value was at least 50%. The “levels of CD4 expression” value in [11] is listed as “severely diminished”. Further, in the data set on CD4+ T lymphocytes, the CD25 surface expression result is given as “upregulated”; the “CD69 and CD38 surface expression” value is recorded as “more intensely”; the HLA-DR surface expression result was “upregulated by ISDs and PMA”. Further, the “levels of GFP expression, rank order” value in the data set with HIV LTR in J-Lat clones was “PMA = ING-B > ING-A = ING-C > prostratin”.

`Cn1cc(C2=C(c3cn(CCCSC(=N)N)c4ccccc34)C(=O)NC2=O)c2ccccc21` [RO-31-8220]: the “reduction of ING-B-driven GFP expression” value in the data set with PKC [1] (discussion statement) was 75%. In addition, the “GFP expression reduced to” value with PKC [1] (pre-incubation with 0.1 µM inhibitor, response to ISDs, prostratin and PMA) is listed as 75%. The “effect on ING-B-driven receptor downregulation” value in the data set on PKC [2] was “not able to downregulate the expression of CD4 and CXCR4”. For the same compound, in the data set with PKC [3], the “overexpression of CD4 and CCR5 compared to untreated control” value is on record as “up to 2.5 fold”.

In the case of `Cc1cn([C@H]2C[C@H](N=[N+]=[N-])[C@@H](CO)O2)c(=O)[nH]c1=O` [ZDV, Zidovudine, reference compound], the EC50 was 4 to 8 nM in the data set on HIV-1 subtype B and C; 7 nM in data set [6] (Human immunodeficiency virus 1, Human PBMC, Subtype B (X4), read-out: EC50); 5 nM in [7]; 4 nM in data set [8] (MT-4 cells, Subtype B (X4), value estimated by extrapolation, read-out: EC50); 8 nM in data set [9].

Consider `CCC/C=C/C=C/C(=O)O[C@H]1/C(=C/C(=O)OC)C[C@H]2C[C@H]([C@@H](C)O)OC(=O)C[C@H](O)C[C@@H]3C[C@H](OC(C)=O)C(C)(C)[C@](O)(C[C@@H]4C/C(=C/C(=O)OC)C[C@H](/C=C/C(C)(C)[C@]1(O)O2)O4)O3` [bryostatin-1], for which the “downregulation of surface CD4 and CXCR4 (in words)” value in data set [10] was “not by prostratin and bryostatin-1”. The “downregulation of surface CCR5” value in data set [11] was “less efficient in downregulating surface expression of CCR5”.

The record behind these values is PMC4020785 (PLoS ONE, 2014).
